Measurements reported in PMC11901700, “A Sweet Almond Globulin Multifunctional Peptide: Identification, In Silico Screening, Restraint Mechanisms to Keap1 and ACE, and Antihypertensive and Ferrous Transport Efficiency” (Nutrients, 2025).
Where no end group is shown, it is not given here.

Tests used:
ABTS+ quenching ability = format: physicochemical; conditions: at 100 μg/mL; absorbance at 734 nm; mean ± standard error
Procedure: The ABTS^+ quenching ability was determined following the same procedures described by Vásquez et al.. The same system without the sample was the control, and glutathione (0.1 mg/mL) was the comparison. The percentage of reduction in absorbance at 734 nm was defined as the ABTS^+ scavenging ability of samples.

Caco-2 cells = test: Iron transmembrane absorption across Caco-2 cell monolayers; format: in vitro ADME; conditions: chelate 320 μg/mL, p < 0.05
Procedure: In a 24-well Transwell culture plate, Caco-2 cells (0.75 × 10^6 cells/cm^2) were cultivated using Dulbecco’s modified Eagle’s medium that contained fetal bovine serum (20 g/L), streptomycin (1 μg/μL), penicillin (1 μg/μL), and neomycin (1 μg/μL), and it was refreshed every 48 h. After 12–14 d of incubation at 5% CO2 and 37 °C, the transepithelial electrical resistance was more than 400 Ω·cm^2, and a monolayer Caco-2 cell mode was formed. Afterwards, the medium was removed, and Hank’s Balanced Salt Solution was added. After 30 min of cultivation at 5% CO2 and 37 °C, Hank’s Balanced Salt Solution was removed from the apical side, and SAGH peptide–ferrous chelates (320 μg/mL) were added and then cultivated at 5% CO2 and 37 °C for 150 min. Every 30 min, the ferrous amount of the basolateral-side cultivate solution was measured using the o-phenanthroline method.

[1] = Superoxide radical scavenging activity (pyrogallol auto-oxidation method); format: physicochemical; conditions: at 100 μg/mL
Procedure: (§1) As described by Wang et al. and Vásquez et al., the hydroxyl (·OH) and superoxide ( O2−· ) radicals’ scavenging activity was measured using the β-deoxyribose oxidation and pyrogallol auto-oxidation methods, respectively. The comparison was conducted when the samples were replaced by glutathione (0.1 mg/mL).

[2] = Reducing power (potassium ferricyanide method); format: physicochemical; conditions: at 100 μg/mL, absorbance at 700 nm
Source text: The potassium ferricyanide method was employed to determine the reducing power of the SAGH peptides at the same conditions reported by Wang et al., where the absorbance at 700 nm represented the reducing power.

[3] = Hydroxyl radical scavenging activity (β-deoxyribose oxidation method); format: physicochemical; conditions: at 100 μg/mL
Procedure: as §1

ACE (from rabbit lungs) = biological target: T1, ACE (from rabbit lungs) (Oryctolagus cuniculus, UniProt P12822); test: ACE inhibitory kinetics (Lineweaver–Burk plot); format: biochemical; conditions: HHL 0.13–1.32 mmol/L as substrate, N = 3
T1 construct: ACE (0.1 U, from rabbit lungs, purity > 99.7%, CAS: 9015-82-1) was obtained from Sigma-Aldrich; purchased Sigma-Aldrich (St. Louis, MO, USA); host or cells: rabbit lung tissue
T1 sequence (P12822 34-1310): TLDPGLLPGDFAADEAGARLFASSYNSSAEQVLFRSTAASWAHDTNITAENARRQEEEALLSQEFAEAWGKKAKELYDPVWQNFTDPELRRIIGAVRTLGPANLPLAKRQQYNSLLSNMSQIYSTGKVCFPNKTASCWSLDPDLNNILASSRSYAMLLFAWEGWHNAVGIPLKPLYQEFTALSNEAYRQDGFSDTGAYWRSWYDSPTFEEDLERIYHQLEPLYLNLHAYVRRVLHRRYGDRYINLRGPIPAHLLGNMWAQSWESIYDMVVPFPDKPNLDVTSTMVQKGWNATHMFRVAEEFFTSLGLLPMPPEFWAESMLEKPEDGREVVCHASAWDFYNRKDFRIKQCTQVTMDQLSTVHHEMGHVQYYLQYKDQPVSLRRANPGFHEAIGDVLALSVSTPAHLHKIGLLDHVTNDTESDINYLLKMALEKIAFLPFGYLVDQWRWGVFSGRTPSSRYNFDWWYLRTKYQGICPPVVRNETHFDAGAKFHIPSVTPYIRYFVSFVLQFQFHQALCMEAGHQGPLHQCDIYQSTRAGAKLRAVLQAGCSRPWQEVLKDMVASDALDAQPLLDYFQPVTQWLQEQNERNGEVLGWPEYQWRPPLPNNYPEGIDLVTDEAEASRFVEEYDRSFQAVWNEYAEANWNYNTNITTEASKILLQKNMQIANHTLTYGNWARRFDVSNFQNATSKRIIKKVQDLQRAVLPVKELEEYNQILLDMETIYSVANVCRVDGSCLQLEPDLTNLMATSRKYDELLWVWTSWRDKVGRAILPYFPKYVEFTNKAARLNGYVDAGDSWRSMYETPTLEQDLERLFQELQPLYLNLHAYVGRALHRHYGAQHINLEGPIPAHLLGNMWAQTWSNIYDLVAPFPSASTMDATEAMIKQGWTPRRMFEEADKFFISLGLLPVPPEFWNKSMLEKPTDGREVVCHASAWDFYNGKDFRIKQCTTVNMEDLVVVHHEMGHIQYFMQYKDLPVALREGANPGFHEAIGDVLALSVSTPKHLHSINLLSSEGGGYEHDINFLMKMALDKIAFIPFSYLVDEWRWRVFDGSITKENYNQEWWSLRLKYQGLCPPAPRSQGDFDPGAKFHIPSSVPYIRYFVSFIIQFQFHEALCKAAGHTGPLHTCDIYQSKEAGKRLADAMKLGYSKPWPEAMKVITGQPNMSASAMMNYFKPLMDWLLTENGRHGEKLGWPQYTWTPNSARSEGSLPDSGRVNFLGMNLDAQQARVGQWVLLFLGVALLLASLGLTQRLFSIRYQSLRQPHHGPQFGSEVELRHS
Source text: The hippuric acid method was used to measure the samples’ inhibitory ability towards ACE, following the same procedures as Zheng et al.. The absorbance at 228 nm was the hippuric acid content and represented ACE activity; therefore, the inhibitory ability of samples towards ACE was defined as the percentage of reduction in the absorption at 228 nm between the control and sample groups. Moreover, the ACE inhibitory kinetic of SAGH peptides was investigated by employing a Lineweaver–Burk plot with N-hippuryl-L-histidyl-L-leucine (HHL, 0.13–1.32 mmol/L) as the substrate.

[4] = Gastrointestinal stability of peptide–ferrous chelate (ferrous solubility in simulated digestion); format: in vitro ADME
Procedure: Next, the intestinal digestive fluid was added, and digestion was continued at pH 6.8 for 2 h in the EDZF-C002 thermostatic vibrator ([…], 175 rpm).

[5] = listed as PMYGGGMV–ferrous chelates

PMYGGGMV–ferrous chelate: chelate prepared by reacting the peptide with FeCl2 at pH 6.5 (also: ferrous iron chelate (reaction with FeCl2))
ABTS+ Scavenging Activity (%) Before Gastrointestinal Digestion (ABTS+ quenching ability): 35.27 ± 2.45 d %
ability to improve ferrous transmembrane absorption (Caco-2 cells; Caco-2 monolayer, Transwell, TEER > 400 Ω·cm2, apical to basolateral, comparators 0.3 mg/mL, HBSS, 37 °C, 5% CO2, 150 min, o-phenanthroline every 30 min, N = 3): greater than that of ferrous chloride
iron transport across the Caco-2 monolayer compared with ferrous lactate (Caco-2 cells; during 120–150 min, apical to basolateral, ferrous lactate 0.3 mg/mL): better
Superoxide Radical Scavenging Ability (%) Before Gastrointestinal Digestion [1]: 75.49 ± 4.09 b %
Superoxide Radical Scavenging Ability (%) Before Gastrointestinal Digestion [1, 5]: 75.49%
Reducing Power Before Gastrointestinal Digestion [2]: 0.179 ± 0.003 e
Reducing Power Before Gastrointestinal Digestion [2, 5]: 0.179
·OH Scavenging Activity (%) Before Gastrointestinal Digestion [3]: 57.69 ± 0.07 d %
·OH Scavenging Activity (%) Before Gastrointestinal Digestion [3, 5]: 60.04%
ACE inhibition mode (ACE (from rabbit lungs)): increased the Km value of the Michaelis–Menten kinetic curves but did not change the Vmax
ferrous solubility during gastric digestion ([4]; 0–90 min, simulated gastric fluid pH 1.9, 37 °C, 175 rpm, soluble ferrous by o-phenanthroline every 30 min, N = 3): relatively stable
ferrous solubility during intestinal digestion ([4]; 91–240 min, intestinal digestive fluid pH 6.8, soluble ferrous by o-phenanthroline, p < 0.05): apparently decreased
ferrous solubility compared with ferrous lactate and ferrous chloride ([4]; from 90 to 150 min of simulated gastrointestinal digestion, p < 0.05): much higher than those of ferrous lactate and ferrous chloride
